Experimental findings from PubChem BioAssay (NCI) are described below.

Molecules are shown by their SMILES.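 Briefly, cells in 96-well plates were exposed to five compound concentrations for 48 h, and endpoints were estimated by linear interpolation. GI50 = concentration required for 50% inhibition of growth. TGI: total growth inhibition.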

Test systems include M14 melanoma; SNB-19 CNS; SF-268 CNS; UACC-62 melanoma; CAKI-1 renal; OVCAR-4 ovarian; HCT-116 colon; CCRF-CEM leukemia; BT-549 breast; HOP-92 NSCLC.
What all share (assay): inhibition of tumour cell growth, NCI panel, 48 h

`CC(=O)[CH-]C(C)=O.CC(=O)[CH-]C(C)=O.N=CC=N.[Sn+2]`: the GI50 was 2.41 µM in the assay with M14 melanoma; 14.6 µM in the assay on SNB-19 CNS; 3.28 µM in the assay on SF-268 CNS; 2.17 µM in the assay with UACC-62 melanoma; 2.54 µM with CAKI-1 renal; 2.62 µM with OVCAR-4 ovarian. The GI50 is 1.72 µM in the assay on HCT-116 colon, 1.51 µM in the assay on CCRF-CEM leukemia, 2.76 µM with BT-549 breast and 1.74 µM in the assay with HOP-92 NSCLC. Further, the TGI in the assay with M14 melanoma turned out to be 5.7 µM; in the assay on SNB-19 CNS, 27.8 µM; with SF-268 CNS, 10.5 µM; in the assay on UACC-62 melanoma it was 5.85 µM; with CAKI-1 renal it was 7.23 µM; in the assay on OVCAR-4 ovarian, 10.5 µM. Besides, the TGI came out at 3.42 µM in the assay on HCT-116 colon, 13.3 µM with CCRF-CEM leukemia, 8.25 µM with BT-549 breast and 3.79 µM with HOP-92 NSCLC.
For the compound `CCN(CCO)CCNc1ccc(C)c2sc3cc(Cl)ccc3c(=O)c12`, the GI50 in the assay with M14 melanoma is 1.64 µM; in the assay with SNB-19 CNS, 1.58 µM; in the assay with SF-268 CNS, 1.44 µM; with UACC-62 melanoma, 1.73 µM; with CAKI-1 renal it was 1.72 µM; with OVCAR-4 ovarian, 2.18 µM. The GI50 with HCT-116 colon is 1.34 µM; in the assay on CCRF-CEM leukemia, 1.52 µM; in the assay on BT-549 breast, 3.78 µM; in the assay on HOP-92 NSCLC, 1.56 µM. Further, the TGI with M14 melanoma is 3.23 µM; in the assay on SNB-19 CNS, 3.17 µM; in the assay with SF-268 CNS, 3.04 µM; in the assay with UACC-62 melanoma, 3.31 µM; in the assay with CAKI-1 renal it was 4.03 µM; in the assay on OVCAR-4 ovarian, 5.15 µM. The TGI in the assay with HCT-116 colon stood at 2.72 µM; in the assay with CCRF-CEM leukemia, 3.46 µM; with BT-549 breast, 14 µM; with HOP-92 NSCLC it was 8.94 µM.
`NCCN1CCN(c2nccc(-c3ccc4ccccc4c3)n2)CC1`: the GI50 is 1.89 µM with M14 melanoma; 2.26 µM in the assay with SNB-19 CNS; 1.75 µM in the assay on SF-268 CNS; 1.87 µM in the assay with UACC-62 melanoma; 1.55 µM with CAKI-1 renal; 2.41 µM in the assay with OVCAR-4 ovarian. Besides, the GI50 is 1.79 µM with HCT-116 colon, 1.85 µM with CCRF-CEM leukemia, 4.89 µM with BT-549 breast and 1.61 µM with HOP-92 NSCLC. Besides, the TGI in the assay with M14 melanoma turned out to be 3.54 µM; with SNB-19 CNS it was 5.98 µM; in the assay with SF-268 CNS, 3.49 µM; in the assay on UACC-62 melanoma, 3.65 µM; in the assay with CAKI-1 renal, 2.95 µM; in the assay with OVCAR-4 ovarian it was 7.5 µM. Besides, the TGI is 3.3 µM with HCT-116 colon, 4.37 µM in the assay with CCRF-CEM leukemia, 18.2 µM with BT-549 breast and 4.01 µM in the assay with HOP-92 NSCLC.
Turning to `CCOC(=O)[C@@H](C)C[C@H](Cc1ccccc1)NC(=O)c1csc([C@@H](C[C@H](C(C)C)N(C)C(=O)[C@@H](NC(=O)[C@H]2CCCCN2C)C(C)(C)C)OC(C)=O)n1`, the GI50 in the assay on M14 melanoma is less than 0.00167 µM; with SNB-19 CNS, less than 0.00167 µM; in the assay on SF-268 CNS it was less than 0.00167 µM; in the assay on UACC-62 melanoma, less than 0.00167 µM; in the assay with CAKI-1 renal it was less than 0.00167 µM; with OVCAR-4 ovarian, 0.00328 µM. In addition, the GI50 in the assay on HCT-116 colon, with CCRF-CEM leukemia, in the assay on BT-549 breast and with HOP-92 NSCLC was less than 0.00167 µM each time. The TGI in the assay with M14 melanoma is 0.0294 µM; with SNB-19 CNS, more than 16.7 µM; with SF-268 CNS, more than 16.7 µM; in the assay with UACC-62 melanoma, more than 16.7 µM; in the assay with CAKI-1 renal, more than 16.7 µM; in the assay on OVCAR-4 ovarian, more than 16.7 µM. Besides, the TGI was more than 16.7 µM in the assay with CCRF-CEM leukemia, 0.00961 µM in the assay with BT-549 breast and 1.44 µM in the assay on HOP-92 NSCLC.
Consider `CNC(=O)c1cc(Oc2ccc(NC(=O)Nc3ccc(Cl)c(OC(F)(F)F)c3)c(F)c2)ccn1`, for which the GI50 is 1.02 µM with M14 melanoma; 3.06 µM with SNB-19 CNS; 2.44 µM in the assay with SF-268 CNS; 1.34 µM in the assay on UACC-62 melanoma; 2.89 µM in the assay on CAKI-1 renal; 1.24 µM with OVCAR-4 ovarian. The GI50 is 1.15 µM in the assay with HCT-116 colon, 1.94 µM with CCRF-CEM leukemia, 3.17 µM in the assay on BT-549 breast and 1.53 µM in the assay on HOP-92 NSCLC. Further, the TGI was 5.38 µM in the assay on M14 melanoma; 20.7 µM with SNB-19 CNS; 14.2 µM in the assay on SF-268 CNS; 10 µM in the assay on UACC-62 melanoma; more than 33.2 µM with CAKI-1 renal; more than 33.2 µM in the assay with OVCAR-4 ovarian. For the same compound, the TGI was 8.08 µM with HCT-116 colon, more than 33.2 µM in the assay on CCRF-CEM leukemia, 14 µM with BT-549 breast and 16.8 µM in the assay with HOP-92 NSCLC.
Regarding `CNC(=O)c1ccc(-c2cnc3ncc(Cc4ccc5ncccc5c4)n3n2)cc1F`, the GI50 in the assay on SNB-19 CNS is more than 100 µM; with SF-268 CNS, 83 µM; in the assay with UACC-62 melanoma, more than 100 µM; in the assay on CAKI-1 renal, more than 100 µM; with OVCAR-4 ovarian, more than 100 µM; in the assay with HCT-116 colon, more than 100 µM. The GI50 is more than 100 µM in the assay with CCRF-CEM leukemia, more than 100 µM with BT-549 breast and 8.54 µM in the assay on HOP-92 NSCLC. Further, the TGI in the assay with SNB-19 CNS, in the assay with SF-268 CNS, with UACC-62 melanoma, with CAKI-1 renal, with OVCAR-4 ovarian and in the assay with HCT-116 colon was more than 100 µM each time. Further, the TGI was more than 100 µM in the assay with CCRF-CEM leukemia, more than 100 µM in the assay with BT-549 breast and 91.5 µM in the assay on HOP-92 NSCLC.
Regarding `Cc1sc(C)c(-c2ccc(CO)o2)c1-c1ccc(CO)o1`, the GI50 is 70.9 µM in the assay with M14 melanoma; more than 100 µM with SNB-19 CNS; 91.1 µM in the assay with SF-268 CNS; 1.16 µM in the assay on CAKI-1 renal; 0.299 µM in the assay on OVCAR-4 ovarian; 0.0695 µM in the assay with HCT-116 colon. The GI50 is 49.1 µM with CCRF-CEM leukemia, more than 71.7 µM in the assay with BT-549 breast and 7.01 µM with HOP-92 NSCLC. Also, the TGI in the assay with M14 melanoma, in the assay with SNB-19 CNS, in the assay on SF-268 CNS, in the assay on CAKI-1 renal, in the assay on OVCAR-4 ovarian and with HCT-116 colon was more than 100 µM each time. For the same compound, the TGI in the assay on CCRF-CEM leukemia, in the assay on BT-549 breast and in the assay with HOP-92 NSCLC was more than 100 µM each time.
